# Tests used:
# [1] = fluorescence excitation/emission and quantum yield of benzo[c]xanthene dyes; type: physicochemical; settings: for FLUORESCENCE, ACID EMIT / FLUORESCENCE, ACID EXCITE: acid form; for FLUORESCENCE, BASE EMIT / FLUORESCENCE, BASE EXCITE: base form; for APPROX. QY. (quantum yield): relative to fluorescein or sulforhodamine 101
# From the text: Fluorescence data was obtained on a Perkin-Elmer Model 650-40 Fluorescence Spectrophotometer with a Perkin-Elmer/Hitachi 057 X-Y Recorder using a tenfold dilution of the absorbance solutions. An estimate of the quantum yield of the dyes relative to fluorescein or sulforhodamine 101 was obtained by integrating the emission spectrum of the dye excited at the same optical density as the standard.
# [2] = absorption spectra (maxima and extinction coefficients) of benzo[c]xanthene dyes; type: physicochemical; settings: for ABSORPTION, ACID MAXIMA (second) / EXTINCTION COEFFICIENT, ACID MAXIMA (second) / ABSORPTION, ACID MAXIMA (first) / EXTINCTION COEFFICIENT, ACID MAXIMA (first): acid form; for ABSORPTION, ACID MAXIMA (second) / EXTINCTION COEFFICIENT, ACID MAXIMA (second): longer-wavelength maximum; for ABSORPTION, ACID MAXIMA (first) / EXTINCTION COEFFICIENT, ACID MAXIMA (first): shorter-wavelength maximum; for ABSORPTION, BASE MAXIMUM / EXTINCTION COEFFICIENT, BASE MAXIMUM: base form
# Description: (§1) A stock solution was prepared by dissolving 7.6 mg of compound 3 in 2.00 ml methanol. The stock solution was diluted ten-fold into 40 mM pH 9.00 potassium phosphate buffer. Absorbance solutions were prepared by further diluting 25 μl of the aqueous stock solution to 2.025 ml with 40 mM potassium phosphate buffers of the appropriate pH.
# [3] = determination of the pKa for the benzo[c]xanthene indicators from plot of absorbance ratios versus pH; settings: 40 mM potassium phosphate buffers
# Description: as §1
# [4] = physchem; settings: 40 mm potassium phosphate buffer
# Description: as §1
# [5] = test system: cells; settings: cited from earlier work
# [6] = potassium phosphate buffer, pH 7.0
compound,measurement,setting,value
"5'-(and-6')-carboxy-3,10-dihydroxy-spiro[7H-benzo[c]xanthene-7,1'(3'H)-isobenzofuran]-3'-one [Compound 2]","FLUORESCENCE, ACID EMIT",[1],543 NM
same,"FLUORESCENCE, ACID EXCITE",[1],514 NM
same,"FLUORESCENCE, BASE EMIT",[1],623 NM
same,"FLUORESCENCE, BASE EXCITE",[1],543 NM
same,APPROX. QY. (quantum yield),[1],~0.35
same,"ABSORPTION, ACID MAXIMA (second)",[2],508 NM
same,"EXTINCTION COEFFICIENT, ACID MAXIMA (second)",[2],28.5 10^3 cm^-1 M^-1
same,"ABSORPTION, ACID MAXIMA (first)",[2],479 NM
same,"EXTINCTION COEFFICIENT, ACID MAXIMA (first)",[2],22.8 10^3 cm^-1 M^-1
same,"ABSORPTION, BASE MAXIMUM",[2],537 NM
same,"EXTINCTION COEFFICIENT, BASE MAXIMUM",[2],44.4 10^3 cm^-1 M^-1
same,pKa,[3],7.80
"O=C1OC2(c3ccc(O)cc3Oc3c2ccc2cc(O)ccc32)c2ccccc21 (centres unmarked) [Compound 1, 3,10-dihydroxy-spiro[7H-benzo[c]xanthen-7,1'(3'H)-isobenzofuran]-3'-one]",pKa,[4],7.85
same,"FLUORESCENCE, ACID EMIT",[1],539 NM
same,"FLUORESCENCE, ACID EXCITE",[1],513 NM
same,"FLUORESCENCE, BASE EMIT",[1],618 NM
same,"FLUORESCENCE, BASE EXCITE",[1],540 NM
same,APPROX. QY. (quantum yield),[1],~0.34
same,"EXTINCTION COEFFICIENT, ACID MAXIMA (second)",[2],28.2 10^3 cm^-1 M^-1
same,"ABSORPTION, ACID MAXIMA (first)",[2],480 NM
same,"EXTINCTION COEFFICIENT, ACID MAXIMA (first)",[2],24.8 10^3 cm^-1 M^-1
same,"ABSORPTION, BASE MAXIMUM",[2],537 NM
same,"EXTINCTION COEFFICIENT, BASE MAXIMUM",[2],49.7 10^3 cm^-1 M^-1
O=C(O)c1ccc2c(c1)C1(OC2=O)c2cc(Cl)c(O)cc2Oc2c1ccc1cc(O)ccc21 (centres unmarked) [Compound 3],pKa,[4],7.65
same,"FLUORESCENCE, ACID EMIT",[1],546 NM
same,"FLUORESCENCE, ACID EXCITE",[1],517 NM
same,"FLUORESCENCE, BASE EMIT",[1],630 NM
same,"FLUORESCENCE, BASE EXCITE",[1],552 NM
same,APPROX. QY. (quantum yield),[1],~0.48
same,"ABSORPTION, ACID MAXIMA (second)",[2],514 NM
same,"EXTINCTION COEFFICIENT, ACID MAXIMA (second)",[2],25.3 10^3 cm^-1 M^-1
same,"ABSORPTION, ACID MAXIMA (first)",[2],485 NM
same,"EXTINCTION COEFFICIENT, ACID MAXIMA (first)",[2],20.5 10^3 cm^-1 M^-1
same,"ABSORPTION, BASE MAXIMUM",[2],547 NM
same,"EXTINCTION COEFFICIENT, BASE MAXIMUM",[2],40.4 10^3 cm^-1 M^-1
CN(C)c1ccc2c(c1)Oc1c(ccc3cc(O)ccc13)C21OC(=O)c2ccccc21 (centres unmarked) [Compound 5],pKa,[4],7.6
same,"FLUORESCENCE, ACID EMIT",[1],585 NM
same,"FLUORESCENCE, ACID EXCITE",[1],549 NM
same,"FLUORESCENCE, BASE EMIT",[1],632 NM
same,"FLUORESCENCE, BASE EXCITE",[1],582 NM
same,APPROX. QY. (quantum yield),[1],~0.19
same,"ABSORPTION, ACID MAXIMA (second)",[2],544 NM
same,"EXTINCTION COEFFICIENT, ACID MAXIMA (second)",[2],21.6 10^3 cm^-1 M^-1
same,"ABSORPTION, ACID MAXIMA (first)",[2],515 NM
same,"EXTINCTION COEFFICIENT, ACID MAXIMA (first)",[2],17.7 10^3 cm^-1 M^-1
same,"ABSORPTION, BASE MAXIMUM",[2],573 NM
same,"EXTINCTION COEFFICIENT, BASE MAXIMUM",[2],44.1 10^3 cm^-1 M^-1
CCN(CC)c1ccc2c(c1)Oc1c(ccc3cc(O)ccc13)C21OC(=O)c2ccccc21 (centres unmarked) [Compound 6],pKa,[4],7.5
same,"FLUORESCENCE, ACID EMIT",[1],583 NM
same,"FLUORESCENCE, ACID EXCITE",[1],557 NM
same,"FLUORESCENCE, BASE EMIT",[1],632 NM
same,"FLUORESCENCE, BASE EXCITE",[1],582 NM
same,APPROX. QY. (quantum yield),[1],~0.23
same,"ABSORPTION, ACID MAXIMA (second)",[2],550 NM
same,"EXTINCTION COEFFICIENT, ACID MAXIMA (second)",[2],24.4 10^3 cm^-1 M^-1
same,"ABSORPTION, ACID MAXIMA (first)",[2],518 NM
same,"EXTINCTION COEFFICIENT, ACID MAXIMA (first)",[2],20.5 10^3 cm^-1 M^-1
same,"ABSORPTION, BASE MAXIMUM",[2],577 NM
same,"EXTINCTION COEFFICIENT, BASE MAXIMUM",[2],46.4 10^3 cm^-1 M^-1
CCNc1cc2c(cc1C)C1(OC(=O)c3ccccc31)c1ccc3cc(O)ccc3c1O2 (centres unmarked) [Compound 7],pKa,[4],7.7
same,"FLUORESCENCE, ACID EMIT",[1],552 NM
same,"FLUORESCENCE, ACID EXCITE",[1],525 NM
same,"FLUORESCENCE, BASE EMIT",[1],629 NM
same,"FLUORESCENCE, BASE EXCITE",[1],558 NM
same,APPROX. QY. (quantum yield),[1],~0.38
same,"ABSORPTION, ACID MAXIMA (second)",[2],522 NM
same,"ABSORPTION, ACID MAXIMA (first)",[2],495 NM
same,"ABSORPTION, BASE MAXIMUM",[2],552 NM
"CN(C)c1ccc2c(c1)Oc1c(ccc3cc(O)ccc13)C21OC(=O)c2cc(C(=O)O)ccc21 (centres unmarked) [Compound 8, 5'-carboxy-10-dimethylamino-3-hydroxy-spiro[7H-benzo[c]xanthene-7,1'(3'H)-isobenzofuran]-3'-one]",pKa,[4],7.5
same,"FLUORESCENCE, ACID EMIT",[1],587 NM
same,"FLUORESCENCE, ACID EXCITE",[1],556 NM
same,"FLUORESCENCE, BASE EMIT",[1],636 NM
same,"FLUORESCENCE, BASE EXCITE",[1],581 NM
same,APPROX. QY. (quantum yield),[1],~0.20
same,"ABSORPTION, ACID MAXIMA (second)",[2],548 NM
same,"EXTINCTION COEFFICIENT, ACID MAXIMA (second)",[2],25.7 10^3 cm^-1 M^-1
same,"ABSORPTION, ACID MAXIMA (first)",[2],518 NM
same,"EXTINCTION COEFFICIENT, ACID MAXIMA (first)",[2],23.2 10^3 cm^-1 M^-1
same,"ABSORPTION, BASE MAXIMUM",[2],574 NM
same,"EXTINCTION COEFFICIENT, BASE MAXIMUM",[2],44.9 10^3 cm^-1 M^-1
CCN(CC)c1ccc2c(c1)Oc1c(ccc3cc(O)ccc13)C21OC(=O)c2ccc(C(=O)O)cc21 (centres unmarked) [Compound 9],pKa,[4],7.75
same,"FLUORESCENCE, ACID EMIT",[1],583 NM
same,"FLUORESCENCE, ACID EXCITE",[1],558 NM
same,"FLUORESCENCE, BASE EMIT",[1],633 NM
same,"FLUORESCENCE, BASE EXCITE",[1],582 NM
same,APPROX. QY. (quantum yield),[1],~0.24
same,"ABSORPTION, ACID MAXIMA (second)",[2],550 NM
same,"EXTINCTION COEFFICIENT, ACID MAXIMA (second)",[2],29.7 10^3 cm^-1 M^-1
same,"ABSORPTION, ACID MAXIMA (first)",[2],517 NM
same,"EXTINCTION COEFFICIENT, ACID MAXIMA (first)",[2],26.2 10^3 cm^-1 M^-1
same,"ABSORPTION, BASE MAXIMUM",[2],577 NM
same,"EXTINCTION COEFFICIENT, BASE MAXIMUM",[2],51.5 10^3 cm^-1 M^-1
"O=C(O)c1ccc2c(c1)C(=O)OC21c2cc3c4c(c2Oc2c1ccc1cc(O)ccc21)CCCN4CCC3 (centres unmarked) [Compound 11, [h,i]julolidino-spiro[7H-benzo[c]xanthen-7,1'(3'H)-isobenzofuran]-3'-one]",pKa,[4],7.9
same,"FLUORESCENCE, ACID EMIT",[1],599 NM
same,"FLUORESCENCE, ACID EXCITE",[1],530 NM
same,"FLUORESCENCE, BASE EMIT",[1],630 NM
same,"FLUORESCENCE, BASE EXCITE",[1],590 NM
same,APPROX. QY. (quantum yield),[1],~0.35
same,"ABSORPTION, ACID MAXIMA (second)",[2],569 NM
same,"EXTINCTION COEFFICIENT, ACID MAXIMA (second)",[2],19.4 10^3 cm^-1 M^-1
same,"ABSORPTION, ACID MAXIMA (first)",[2],529 NM
same,"EXTINCTION COEFFICIENT, ACID MAXIMA (first)",[2],22.2 10^3 cm^-1 M^-1
same,"ABSORPTION, BASE MAXIMUM",[2],587 NM
same,"EXTINCTION COEFFICIENT, BASE MAXIMUM",[2],38.7 10^3 cm^-1 M^-1
"CC(=O)Oc1ccc2c3c(ccc2c1)C1(OC(=O)c2cc(C(=O)O)ccc21)c1ccc(N(C)C)cc1O3 (centres unmarked) [Compound 14, 3-acetoxy-5'-carboxy-10-dimethylamino-spiro[7H-benzo[c]xanthene-7,1'(3'H)-isobenzofuran]-3'-one]",Absorbance maximum (first),[2]; [6],511 nm
same,Absorbance maximum (second),[2]; [6],540 nm
same,extinction coefficient (first maximum),[2]; [6],"24,100 cm^-1 M^-1"
same,extinction coefficient (second maximum),[2]; [6],"21,700 cm^-1 M^-1"
N#Cc1c(O)ccc(O)c1C#N [Dihydroxyphthalonitrile],membrane permeability,[5],high membrane permeability
same,retention by cells,[5]; due to its high membrane permeability,not well retained by cells

# From patent US4945171A, “Xanthene dyes having a fused (C) benzo ring” (Molecular Probes, Inc., priority 1987, dated 1990)
